Laboratory results as given in ChEMBL document CHEMBL4196229, “GPR40 Receptor Agonists for the Treatment of Type 2 Diabetes and Related Diseases” (ACS Med Chem Lett, 2018).
pEC50: −log10 of the molar value.

biological target: Free fatty acid receptor 1 (Homo sapiens, UniProt O14842); assay: Agonist activity at human GPR40 expressed in human 1321N1 cells assessed as IP1 accumulation after 1 hr by HTRF assay; assay type: functional, cell-based
Sequence (O14842 whole entry): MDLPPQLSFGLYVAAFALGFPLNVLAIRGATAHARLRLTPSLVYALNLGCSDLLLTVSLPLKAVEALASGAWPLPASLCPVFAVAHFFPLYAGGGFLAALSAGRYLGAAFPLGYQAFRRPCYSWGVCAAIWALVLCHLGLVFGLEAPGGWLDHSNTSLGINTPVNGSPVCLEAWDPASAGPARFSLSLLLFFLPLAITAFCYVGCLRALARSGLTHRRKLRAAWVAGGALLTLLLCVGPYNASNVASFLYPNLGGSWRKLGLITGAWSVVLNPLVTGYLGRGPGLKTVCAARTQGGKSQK

In order of falling pEC50:
1. Cc1cc(-c2nnn(CC(C)(C)O)n2)cc(C)c1-c1ccc(F)c2c1CC[C@H]2Nc1ccc([C@H]2C[C@@H]2C(=O)O)nc1  8.70
2. Cc1cc(-c2cccc(=O)n2C)cc(C)c1-c1ccc(F)c2c1CC[C@H]2Nc1ccc([C@H]2C[C@@H]2C(=O)O)nc1  8.40
3. Cc1cc(OCC2CCOC2)cc(C)c1-c1ccc(F)c2c1CC[C@H]2Nc1ccc([C@H]2C[C@@H]2C(=O)O)nc1 (stereo not given in full)  8.15
4. Cc1cc(OCCC(C)(C)O)cc(C)c1-c1ccc(F)c2c1CC[C@H]2Nc1ccc([C@H]2C[C@@H]2C(=O)O)nc1  7.96
5. CNC(=O)c1cc(C)c(-c2ccc(F)c3c2CC[C@H]3Nc2ccc([C@H]3C[C@@H]3C(=O)O)nc2)c(C)c1  6.83
